One test has as its system T-47D cells. The test can be described thus: Caspase cascade activation (N-(Ac-DEVD)-N'-ethoxycarbonyl-R110 fluorogenic substrate) in T-47D cells. The conditions noted are these: 48 h incubation. Format: cell-based, Human. In a few lines: (§1)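 EC50 comes from sigmoidal fitting of the net RFU ratio over DMSO control, read at ex 485/em 530 nm 3 h after adding 14 μM Ac-DEVD-R110 in lysolecithin/DTT/PIPES pH 7.2 buffer. Compound (0.016-10 μM final) was applied to cells for 48 h at 37 °C beforehand.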

In test [1] the test system is ZR-75-1 cells. The test is described as follows: Caspase cascade activation (N-(Ac-DEVD)-N'-ethoxycarbonyl-R110 fluorogenic substrate) in ZR-75-1 cells. The settings on record: ZR-75-1, 48 h incubation. Format: cell-based, Human. In a few lines:
as §1

Test [2] deals with ZR-75-1 cells. The test can be described thus: Cell proliferation assay (GI50) in ZR-75-1 cells. The test is classed as cell-based. The settings on record: Homo sapiens; ZR 75-1, 48 h. The procedure: [Worded in the source for another cell line; this cell line is reported under the same test.] (§2) T-47D cells were grown and harvested as in Example 221. An aliquot of 90 μl of cells (2.2×10^4 cells/ml) was added to a well of a 96-well microtiter plate containing 10 μl of a 10% DMSO in RPMI-1640 media solution containing 1 nM to 100 μM of 4-(3-methoxyanilino)-2-(2-pyridinyl)-6-(trifluoromethyl)pyrimidine (0.1 nM to 10 μM final). An aliquot of 90 μl of cells was added to a well of a 96-well microtiter plate containing 10 μl of a 10% DMSO in RPMI-1640 media solution without compound as the control sample for maximal cell proliferation (AMax). The samples were mixed by agitation and then incubated at 37° C. for 48 h in a 5% CO2-95% humidity incubator. After incubation, the samples were removed from the incubator and 20 μl of CellTiter 96 AQueous One Solution Cell Proliferation^TM reagent (Promega) was added. The samples were mixed by agitation and incubated at 37° C. for 2-4 h in a 5% CO2-95% humidity incubator. Using an absorbance plate reader (Model 1420 Wallac Instruments), an initial reading (T=0) was made approximately 1-2 min after addition of the solution, employing absorbance at 490 nm. This determines the possible background absorbance of the test compounds. No absorbance for 4-(3-methoxyanilino)-2-(2-pyridinyl)-6-(trifluoromethyl)pyrimidine was found at 490 nm. After the 2-4 h incubation, the samples were read for absorbance as above (ATest). […]

The subject of the next test is MCF-7 cells. The test is described as follows: Cell proliferation assay (GI50) in MCF-7 cells. The test is classed as cell-based. The settings on record: Homo sapiens, MCF7; MCF-7, 48 h. As for the experimental part:
[Worded in the source for another cell line; this cell line is reported under the same test.] as §2

The subject of a further test is MDA-MB-435 cells. The test is described as follows: Cell proliferation assay (GI50) in MDA-MB-435 cells. The test is classed as cell-based. The conditions noted are these: Homo sapiens, MDA-MB-435, 48 h. As for the experimental part:
[Worded in the source for another cell line; this cell line is reported under the same test.] as §2

The subject of another test is SK-Br-3 cells. The test can be described thus: Cell proliferation assay (GI50) in SK-Br-3 cells. The test is classed as cell-based. The settings on record: Homo sapiens, SK-BR-3, 48 h. As for the experimental part: [Worded in the source for another cell line; this cell line is reported under the same test.] as §2
The subject of test [3] is PC-3 (prostate cancer cell line). The test can be described thus: Cell proliferation assay (GI50) in PC-3 cells. The test is classed as cell-based. The conditions noted are these: Homo sapiens, PC-3, 48 h. The procedure:
[Worded in the source for another cell line; this cell line is reported under the same test.] as §2

The subject of test [4] is SW620 (colorectal cancer cell line). The test is described as follows: Cell proliferation assay (GI50) in SW620 cells. Format: cell-based. The settings on record: Homo sapiens, SW-620; SW620, 48 h. As for the experimental part: [Worded in the source for another cell line; used here, by the source, with some conditions changed.] as §2
Test [5] has as its system P388 (mouse leukemia cell line). The test can be described thus: Cell proliferation assay (GI50) in P388 cells. The test is classed as cell-based. The settings on record: P388, 48 h. As for the experimental part:
[Worded in the source for another organism; used here, by the source, with some conditions changed.] as §2

Test [6] deals with MES-SA (sarcoma cell line). The test is described as follows: Cell proliferation assay (GI50) in MES-SA cells. The test is classed as cell-based. The settings on record: Homo sapiens, 48 h. The procedure:
[Worded in the source for another cell line; this cell line is reported under the same test.] as §2

[7] abbreviates: caspase activity: ratio of net RFU of test compound to control.

For the compound `COc1cccc(Nc2cc(C(F)(F)F)nc(-c3ccccn3)n2)c1` [Compound A, 4-(3-methoxyanilino)-2-(2-pyridinyl)-6-(trifluoromethyl)pyrimidine], the EC50 was 433 nM in the test on T-47D cells (Homo sapiens, T47D, caspase activation potency, read-out: T47 EC50) and 140 nM with ZR-75-1 cells [1] (Homo sapiens, caspase activation potency). Also, the “T47 Ratio 48 hr” value in the test with T-47D cells (setting [7]) was determined as 29.3. In the test on ZR-75-1 cells [1] (setting [7]), the “ZR Ratio 48 hr” value was determined as 3.6. Further, the GI50 in the test on ZR-75-1 cells [2] was 100 nM; in the test on MCF-7 cells, 100 nM; in the test with MDA-MB-435 cells it was 4500 nM; in the test with SK-Br-3 cells, 60 nM; in test [3], > 10000 nM; in [4] it was > 10000 nM. The GI50 in test [5] and in test [6] was > 10000 nM throughout.

A word on the EC50: it is the midpoint of the concentration-response curve. As usually defined, the GI50 is the concentration that inhibits growth by half. A higher GI50 goes with less potent growth inhibition.

The values above are taken from US6716851B2, “Substituted 2-aryl-4-arylaminopyrimidines and analogs as activators or caspases and inducers of apoptosis and the use thereof” (Cytovia, Inc., priority 2000, dated 2004).
